Measurements: patent US11141413B2, “Method of treating renal cell carcinoma using N-(4-(6,7-dimethoxyquinolin-4-yloxy)phenyl)-N′-(4-fluorophenyl)cyclopropane-1,1-dicarboxamide, (2S)-hydroxybutanedioate” (Exelixis, Inc., priority 2016, dated 2021)
Several values for one entry are separate records, joined by “and”; a condition that tells them apart may be missing. Equal values may be shown once.

Columns and labels:
[1] = tested on: advanced renal cell carcinoma (RCC); experiment: METEOR (Study 1) randomized phase 3 trial, cabozantinib vs everolimus: PFS, OS, ORR; assay type: in vivo, human; conditions: for ORR (95% CI), IRC / ORR (95% CI), Investigator assessed / Progressive disease, IRC / Progressive disease, Investigator assessed / Stable disease, IRC / Stable disease, Investigator assessed / Confirmed ORR (95% CI), IRC / Confirmed ORR (95% CI), Investigator assessed / Confirmed responses (95% CI), IRC / Confirmed responses (95% CI), Investigator assessed: RECIST 1.1; for PFS event: all randomized
[2] = tested on: advanced renal cell carcinoma; conditions: nivolumab study; cited from earlier work
[3] = Patients With High Tumor Burden
[4] = Pts with Bone and Visceral Metastases
[5] = prior therapy subgroup Anti-PD-1/PD-L1
[6] = prior therapy subgroup Pazopanib Only
[7] = prior therapy subgroup Sunitinib Only

CO[C@H]1C[C@@H]2CC[C@@H](C)[C@@](O)(O2)C(=O)C(=O)N2CCCC[C@H]2C(=O)O[C@H]([C@H](C)C[C@@H]2CC[C@@H](OCCO)[C@H](OC)C2)CC(=O)[C@H](C)/C=C(\C)[C@@H](O)[C@@H](OC)C(=O)[C@H](C)C[C@H](C)/C=C/C=C/C=C/1C [everolimus]
Kaplan-Meier estimate of % of patients alive ([1]; 6 Months landmark): 81% (76%, 85%)
Kaplan-Meier estimate of % of patients alive ([1]; 12 Months landmark): 63% and 63% (58%, 78%)
Kaplan-Meier estimate of % of patients alive ([1]; 18 Months landmark): 47%
Kaplan-Meier estimate of % of patients alive ([1]; 18 Months landmark, listed as Everolimus): 47% (41%, 52%)
Kaplan-Meier estimate of % of patients alive ([1]; 24 Months landmark): 31% (23%, 39%)
ORR (95% CI), IRC ([1]; Asia Pacific): 2 (0-11) %
ORR (95% CI), Investigator assessed ([1]; Asia Pacific): 4 (1-15) %
Progressive disease, IRC ([1]; Asia Pacific): 28%
Progressive disease, Investigator assessed ([1]; Asia Pacific): 26%
Stable disease, IRC ([1]; Asia Pacific): 60%
Stable disease, Investigator assessed ([1]; Asia Pacific): 60%
ORR (95% CI), IRC ([1]; Europe): 4 (1-8) %
ORR (95% CI), Investigator assessed ([1]; Europe): 4 (1-8) %
Progressive disease, IRC ([1]; Europe): 24%
Progressive disease, Investigator assessed ([1]; Europe): 25%
Stable disease, IRC ([1]; Europe): 65%
Stable disease, Investigator assessed ([1]; Europe): 66%
Median OS ([1]; ITT, all 658 randomized, cutoff Dec. 31, 2015): 16.5 months
Median OS ([1]; ITT, all 658 randomized, cutoff Dec. 31, 2015, listed as Everolimus): 16.5 (14.7, 18.8) months
Objective response rate (confirmed, partial responses only) per IRC ([1]; ITT, all 658 randomized, cutoff May 22, 2015): 3%
Objective response rate (confirmed, partial responses only) per IRC ([1]; ITT, all 658 randomized, cutoff May 22, 2015, listed as eve): 3%
ORR (95% CI), IRC ([1]; North America): 2 (1-7) %
ORR (95% CI), Investigator assessed ([1]; North America): 3 (1-8) %
Progressive disease, IRC ([1]; North America): 30%
Progressive disease, Investigator assessed ([1]; North America): 29%
Stable disease, IRC ([1]; North America): 59%
Stable disease, Investigator assessed ([1]; North America): 62%
Confirmed ORR (95% CI), IRC [1, 3]: 0%
Confirmed ORR (95% CI), Investigator assessed [1, 3]: 1 (0-4) %
Progressive disease, IRC [1, 3]: 26%
Progressive disease, Investigator assessed [1, 3]: 27%
Stable disease, IRC [1, 3]: 64%
Stable disease, Investigator assessed [1, 3]: 62%
Confirmed ORR (95% CI), IRC ([1]; Patients With Low Tumor Burden): 7 (3-12) %
Confirmed ORR (95% CI), Investigator assessed ([1]; Patients With Low Tumor Burden): 7 (4-13) %
Progressive disease, IRC ([1]; Patients With Low Tumor Burden): 28%
Progressive disease, Investigator assessed ([1]; Patients With Low Tumor Burden): 27%
Stable disease, IRC ([1]; Patients With Low Tumor Burden): 60%
Stable disease, Investigator assessed ([1]; Patients With Low Tumor Burden): 64%
Confirmed responses (95% CI), IRC ([1]; Pts with Bone Metastases): 0%
Confirmed responses (95% CI), Investigator assessed ([1]; Pts with Bone Metastases): 0%
Progressive disease, IRC ([1]; Pts with Bone Metastases): 37%
Progressive disease, Investigator assessed ([1]; Pts with Bone Metastases): 26%
Stable disease, IRC ([1]; Pts with Bone Metastases): 54%
Stable disease, Investigator assessed ([1]; Pts with Bone Metastases): 63%
Confirmed responses (95% CI), IRC [1, 4]: 0%
Confirmed responses (95% CI), Investigator assessed [1, 4]: 0%
Progressive disease, IRC [1, 4]: 44%
Progressive disease, Investigator assessed [1, 4]: 29%
Stable disease, IRC [1, 4]: 44%
Stable disease, Investigator assessed [1, 4]: 59%
Confirmed responses (95% CI), IRC ([1]; Pts without Bone Metastases): 4 (2-7) %
Confirmed responses (95% CI), Investigator assessed ([1]; Pts without Bone Metastases): 5 (3-9) %
Progressive disease, IRC ([1]; Pts without Bone Metastases): 24%
Progressive disease, Investigator assessed ([1]; Pts without Bone Metastases): 26%
Stable disease, IRC ([1]; Pts without Bone Metastases): 64%
Stable disease, Investigator assessed ([1]; Pts without Bone Metastases): 63%
Objective response rate per investigator ([1]; all 658 randomized, cutoff May 22, 2015): 4%
Median duration of PFS ([1]; all 658 randomized, per IRC, cutoff May 22, 2015): 3.9 months
Median duration of PFS ([1]; all 658 randomized, per IRC, cutoff May 22, 2015, listed as Everolimus): 3.9 (3.7-5.1) months and 3.9 months
Median duration of PFS ([1]; all 658 randomized, per investigator, cutoff May 22, 2015): 5.1 (3.9-5.5) months
PFS event ([1]; per IRC, cutoff May 22, 2015): 214 (66) ^ n (%)
PFS event ([1]; per investigator, cutoff May 22, 2015): 233 (71) ^ n (%)
Median PFS ([1]; first 375 randomized, per independent radiology review committee (IRC)): 3.8 months
Median PFS ([1]; first 375 randomized, per independent radiology review committee (IRC), listed as Everolimus): 3.8 (3.7, 5.4) months
Median PFS ([1]; first 375 randomized, per independent radiology review committee (IRC), listed as eve): 3.8 months
Median OS ([1]; high MET tumor expression): 15.2 months
Median OS ([1]; high tumor burden): 12.2 mo
Patients with reduction in measurable tumor lesion size ([1]; in vivo): 48%
Median OS ([1]; low MET tumor expression): 18.4 months
Median OS ([1]; low tumor burden): 19.3 mo
Median OS ([1]; patients enrolled in Canada): 12.8 mo
Median PFS ([1]; patients enrolled in Canada): 3.7 mo
ORR ([1]; patients enrolled in Canada): 0%
Median PFS ([1]; patients with bone and visceral metastases): 1.9 mo
Median PFS ([1]; patients with bone metastases): 2.7 mo
Best overall response: confirmed complete response ([1]; per IRC): 0 n
Best overall response: confirmed partial response ([1]; per IRC): 11 n
Best overall response: confirmed complete response ([1]; per investigator): 0 n
Confirmed ORR (95% CI), tumor response by IRC [1, 5]: 0%
Confirmed ORR (95% CI), tumor response by investigator [1, 5]: 0%
Progressive disease, tumor response by IRC [1, 5]: 29%
Progressive disease, tumor response by investigator [1, 5]: 14%
Stable disease, tumor response by IRC [1, 5]: 64%
Stable disease, tumor response by investigator [1, 5]: 86%
Confirmed ORR (95% CI), tumor response by IRC [1, 6]: 4 (1-10) %
Confirmed ORR (95% CI), tumor response by investigator [1, 6]: 4 (1-10) %
Progressive disease, tumor response by IRC [1, 6]: 22%
Progressive disease, tumor response by investigator [1, 6]: 27%
Stable disease, tumor response by IRC [1, 6]: 66%
Stable disease, tumor response by investigator [1, 6]: 64%
Confirmed ORR (95% CI), tumor response by IRC [1, 7]: 3 (1-8) %
Confirmed ORR (95% CI), tumor response by investigator [1, 7]: 4 (1-9) %
Progressive disease, tumor response by IRC [1, 7]: 35%
Progressive disease, tumor response by investigator [1, 7]: 29%
Stable disease, tumor response by IRC [1, 7]: 57%
Stable disease, tumor response by investigator [1, 7]: 63%
Deaths ([1]; second interim analysis of OS, of randomized patients): 55%
Median OS of comparator arm [2]: 19.6 months
Median PFS of control arm [2]: 4.4 months
